According to patent US20200030355A1, “COMBINATION THERAPY FOR TREATING CANCER” (Epizyme, Inc., priority 2014, published 2020):

Legend:
MOLM-13 (MLL-AF9) [1] = test: EPZ-5676 7-day pre-treatment, then second compound 72 hours, growth inhibition GI100 shift; primary screen and retest (Example 7); assay type: cell-based, human; settings: second compound 72 hours; for Combination with EPZ-5676, MOLM-13 (MLL-AF9) Primary screen: 300 nM EPZ-5676 7-day pre-treatment, ATPLite; for Combination with EPZ-5676, MOLM-13 (MLL-AF9) Retest: 150 nM EPZ-5676 7-day pre-treatment, Cell Titer Glo
Protocol: (§1) Cells were then equilibrated in incubators for 24 hours before treatment with a second compound. Treated assay plates were incubated with a second compound for 72 hours. After this time, plates were developed for endpoint analysis using ATPLite to measure ATP content, which is used as an indicator of cell viability.
(§2) Cells were then treated with a second compound for 72 hours. After this time, plates were developed for endpoint analysis using Cell Titer Glo to measure ATP content, which is used as an indicator of cell viability.
(§3) “N/D” means the GI100 of the second compound could not be determined for both conditions and “-” means not tested.
(§4) Growth Inhibition (GI) as a measure of cell viability: The cell viability of vehicle was measured at the time of dosing the second agent (T0) and after seventy-two hours (T72). […] A GI 200% represents complete death of all cells in the culture well. Compounds reaching an activity plateau of GI 200% are considered cytotoxic. GI is calculated by applying the following test and equation: […]
(§5) where T is the signal measure for a test article, V is the vehicle-treated control measure, and V0 is the vehicle control measure at time zero.

SKM-1 (non-MLLr) = test: as above; assay type: cell-based, human; settings: 300 nM EPZ-5676 7-day pre-treatment; for Combination with EPZ-5676, SKM-1 (non-MLLr) Retest: Cell Titer Glo
Protocol: as §1, §2, §3, §4, §5

OCI-AML-4 (MLL-ENL) = test: as above; assay type: cell-based; settings: 300 nM EPZ-5676 7-day pre-treatment, second compound 72 hours; for Combination with EPZ-5676, OCI-AML-4 (MLL-ENL) Retest: Cell Titer Glo
Protocol: as §1, §2, §3, §4, §5

MOLM-13 cells = test: EPZ-5676 300 nM 7-day pre-treatment, then second compound 72 hours, ATPLite, IC50 shift (Example 6); assay type: cell-based, human; settings: 300 nM EPZ-5676 or DMSO 7-day pre-treatment, then 2nd compound 72 hours, Synergy = IC50 of 2nd compound decreased by 2-fold or more vs DMSO control
Protocol: as §1
(§6) “N/D” means that IC50 of the second compound could not be determined for both conditions.

MOLM-13 (MLL-AF9) [2] = test: Combination proliferation study with Compound A2 (ATP/CellTiter-Glo, Chou-Talalay combination index); assay type: cell-based, human; settings: 7 Day Cotreatment Model, Table 5
Protocol: The acute myelogenous leukemia cell lines MV4-11 (MLL-AF4) and MOLM-13 (MLL-AF9) were obtained from American Type Culture Collection (ATCC; Rockville, Md.) and Deutsche Sammlung von Mikroorganismen and Zellkulturen (DSMZ; Braunschweig, Germany) respectively.
Studies were performed using MLL-rearranged cell lines in vitro to evaluate the anti-proliferative effect of a combination of two agents together on cell growth. Initial proliferation studies were performed to determine the IC50 of a given compound in each cell line. The cell counts were measured by ATP quantitation using the Promega Cell Titer Glo kit and luminescence values corresponded to the amount of ATP in a given well.
Compounds were evaluated for synergy in the co-treatment phase by testing the compounds in a concentration range which was bracketed around their IC50 values. The compounds were plated to a 96 well plate in a matrix format (FIG. 3) which includes increasing concentrations of each drug in the combination in a constant ratio, in addition to the effect of each compound alone in the study. Cells were seeded and grown in the log-linear phase for 3 or 7 days in the co-treatment phase. Minimum inhibition (DMSO alone) controls were used in each plate to calculate fraction affected (Fa) of a test well. DMSO concentration was kept at 0.1% v/v.
The drug combination analysis was performed utilizing the Chou-Talalay method Synergy was determined using the software package Calcusyn by Biosoft. The combination index (CI) is a quantitative term used to describe the level of synergy or antagonism in a given test system. A combination index less than one indicates synergy, and a CI greater than one indicates antagonism. Further, strong synergism is achieved when the CI value falls below 0.3.
Graphs representing values of combination index (CI) versus Fractional effect (Fa) known as Fa-CI plots were generated and synergy was evaluated. Drug synergy was statistically defined by CI values less than 1, antagonism by CI>1 and additive effect by CI equal to 1.
Graphs representing values of combination index (CI) versus Fractional effect (Fa) known as Fa-CI plots were generated and synergy was evaluated. Drug synergy was statistically defined by CI values less than 1, antagonism by CI>1 and additive effect by CI equal to 1. […]
Cell viability was measured via ATP content using CellTiter-Glo® (Promega).
Proliferation studies were performed using MOLM-13, MV4-11 and SKM-1 cell lines in vitro to evaluate the cancer cell killing effect of a combination of two agents together on cell growth. Initial proliferation studies were performed to determine the IC50 values of a given compound in each cell line. The cell counts were measured by ATP quantitation using the Promega Cell Titer Glo kit and luminescence values correspond to the amount of ATP in a given well. […]
Compounds evaluated for synergy in the co-treatment phase were tested in a range which was bracketed around the IC50's.

SKM-1 cells = test: EPZ-5676 300 nM 7-day pre-treatment, then second compound 72 hours, ATPLite, IC50 shift (Example 6); assay type: cell-based, human; settings: SKM-1 cells; 300 nM EPZ-5676 or DMSO 7-day pre-treatment, then 2nd compound 72 hours, ATPLite; Synergy = IC50 of 2nd compound decreased by 2-fold or more vs DMSO control
Protocol: as §1, §6

Row | SMILES | Combination with EPZ-5676, MOLM-13 (MLL-AF9) Primary screen (MOLM-13 (MLL-AF9) [1]) | Combination with EPZ-5676, MOLM-13 (MLL-AF9) Retest (MOLM-13 (MLL-AF9) [1]) | Combination with EPZ-5676, SKM-1 (non-MLLr) Retest (SKM-1 (non-MLLr)) | Combination with EPZ-5676, OCI-AML-4 (MLL-ENL) Retest (OCI-AML-4 (MLL-ENL)) | MOLM-13 (summary of combination study: EPZ-5676 + 2nd compound) (MOLM-13 cells) | also measured
1 | Cn1c(Nc2ccc(C(F)(F)F)cc2)nc2cc(Oc3ccnc(-c4ncc(C(F)(F)F)[nH]4)c3)ccc21 [RAF265] | Synergy (considered synergistic if the GI100 (Growth inhibition 100) value of the second compound decreased by 2-fold or more when EPZ-5676 was added as compared to the DMSO control) |  |  |  |  | 
2 | Cn1cnc2c(F)c(Nc3ccc(Br)cc3F)c(C(=O)NOCCO)cc21 [Binimetinib (MEK-162), Binimetinib] |  | Synergy (considered synergistic if the GI100 (Growth inhibition 100) value of the second compound decreased by 2-fold or more when EPZ-5676 was added as compared to the DMSO control) | Synergy (considered synergistic if the GI100 (Growth inhibition 100) value of the second compound decreased by 2-fold or more when EPZ-5676 was added as compared to the DMSO control) | Synergy (considered synergistic if the GI100 (Growth inhibition 100) value of the second compound decreased by 2-fold or more when EPZ-5676 was added as compared to the DMSO control) |  | 
3 | CC(C)Nc1cc(-c2c[nH]c(C(=O)N[C@H](CO)c3cccc(Cl)c3)c2)c(Cl)cn1 [Ulixertinib] |  | Synergy (considered synergistic if the GI100 (Growth inhibition 100) value of the second compound decreased by 2-fold or more when EPZ-5676 was added as compared to the DMSO control) | Synergy (considered synergistic if the GI100 (Growth inhibition 100) value of the second compound decreased by 2-fold or more when EPZ-5676 was added as compared to the DMSO control) | Synergy (considered synergistic if the GI100 (Growth inhibition 100) value of the second compound decreased by 2-fold or more when EPZ-5676 was added as compared to the DMSO control) |  | 
4 | Cn1cnc2c(F)c(Nc3ccc(Br)cc3Cl)c(C(=O)NOCCO)cc21 [Selumetinib (AZD6244), Selumetinib] | Synergy (considered synergistic if the GI100 (Growth inhibition 100) value of the second compound decreased by 2-fold or more when EPZ-5676 was added as compared to the DMSO control) | Synergy (considered synergistic if the GI100 (Growth inhibition 100) value of the second compound decreased by 2-fold or more when EPZ-5676 was added as compared to the DMSO control) | Synergy (considered synergistic if the GI100 (Growth inhibition 100) value of the second compound decreased by 2-fold or more when EPZ-5676 was added as compared to the DMSO control) | Synergy (considered synergistic if the GI100 (Growth inhibition 100) value of the second compound decreased by 2-fold or more when EPZ-5676 was added as compared to the DMSO control) | Synergy (considered synergistic if the IC50 value of the second compound decreased by 2-fold or more when EPZ-5676 was added as compared to the DMSO control) | Combination with EPZ-5676, SKM-1 (non-MLLr) Primary screen (SKM-1 (non-MLLr); ATPLite): Synergy (considered synergistic if the GI100 (Growth inhibition 100) value of the second compound decreased by 2-fold or more when EPZ-5676 was added as compared to the DMSO control); Combination with EPZ-5676, OCI-AML-4 (MLL-ENL) Primary screen (OCI-AML-4 (MLL-ENL); ATPLite): Synergy (considered synergistic if the GI100 (Growth inhibition 100) value of the second compound decreased by 2-fold or more when EPZ-5676 was added as compared to the DMSO control)
5 | NC1(c2ccc(-c3nc4ccn5c(=O)[nH]nc5c4cc3-c3ccccc3)cc2)CCC1 [MK2206] |  |  |  |  | Synergy (considered synergistic if the IC50 value of the second compound decreased by 2-fold or more when EPZ-5676 was added as compared to the DMSO control) | Combination with Compound A2, MOLM13 (MOLM-13 (MLL-AF9) [2]): Additive (additive effect by CI equal to 1); SKM-1 (summary of combination study: EPZ-5676 + 2nd compound) (SKM-1 cells): Synergy (considered synergistic if the IC50 value of the second compound decreased by 2-fold or more when EPZ-5676 was added as compared to the DMSO control)
6 | CNC(=O)c1cc(Oc2ccc(NC(=O)Nc3ccc(Cl)c(C(F)(F)F)c3)cc2)ccn1 [Sorafenib] | Synergy (considered synergistic if the GI100 (Growth inhibition 100) value of the second compound decreased by 2-fold or more when EPZ-5676 was added as compared to the DMSO control) | Synergy (considered synergistic if the GI100 (Growth inhibition 100) value of the second compound decreased by 2-fold or more when EPZ-5676 was added as compared to the DMSO control) |  |  | Synergy (considered synergistic if the IC50 value of the second compound decreased by 2-fold or more when EPZ-5676 was added as compared to the DMSO control) | 
7 | Cn1nccc1Nc1nccc(-c2ccn([C@H](CO)c3ccc(Cl)c(F)c3)c(=O)c2)n1 [GDC0994] |  |  | Synergy (considered synergistic if the GI100 (Growth inhibition 100) value of the second compound decreased by 2-fold or more when EPZ-5676 was added as compared to the DMSO control) | Synergy (considered synergistic if the GI100 (Growth inhibition 100) value of the second compound decreased by 2-fold or more when EPZ-5676 was added as compared to the DMSO control) |  | 
